Data: PubChem BioAssay AID1259407 (Chemical Carcinogenesis Research Information System (CCRIS), 2018)
Calls of active or inactive are those of the source. The rule behind the calls is not given here.

System: CCRIS mutagenicity, Ames/micronucleus/aberration tests
Test: CCRIS mutagenicity studies
[1] = Test System: AMES SALMONELLA TYPHIMURIUM, Strain/Indicator: TA100, Metabolic Activation: NONE, Method: STANDARD PLATE
[2] = Test System: AMES SALMONELLA TYPHIMURIUM, Strain/Indicator: TA97A, Metabolic Activation: NONE, Method: PREINCUBATION
[3] = Test System: AMES SALMONELLA TYPHIMURIUM, Strain/Indicator: TA97A, Metabolic Activation: RAT, LIVER, S-9, AROCLOR 1254, Method: PREINCUBATION
[4] = Test System: AMES SALMONELLA TYPHIMURIUM, Strain/Indicator: TA98, Metabolic Activation: NONE, Method: PREINCUBATION
[5] = Test System: AMES SALMONELLA TYPHIMURIUM, Strain/Indicator: TA100, Metabolic Activation: NONE, Method: PREINCUBATION
[6] = Test System: AMES SALMONELLA TYPHIMURIUM, Strain/Indicator: TA1535, Metabolic Activation: NONE, Method: PREINCUBATION
[7] = Test System: AMES SALMONELLA TYPHIMURIUM, Strain/Indicator: TA1537, Metabolic Activation: NONE, Method: PREINCUBATION

`Oc1cnc2ccccc2c1` was tested, and the mutagenic call [1] was “inactive; negative” and the mutagenic call (Test System: AMES SALMONELLA TYPHIMURIUM, Strain/Indicator: TA100, Metabolic Activation: RAT, LIVER, S-9, AROCLOR 1254 (10% OR 20%), Method: STANDARD PLATE) was “inactive; negative”.

`CC(Br)C(=O)NCc1ccc(Cl)cc1` (configuration not stated) was tested, and the mutagenic call (Test System: AMES SALMONELLA TYPHIMURIUM, Strain/Indicator: TA100, Metabolic Activation: MOUSE, LIVER, S-9, AROCLOR 1254, Method: STANDARD PLATE) was “active; positive” and the mutagenic call [1] was “active; positive”.

For `OC1C=Cc2c(ccc3c2-c2cccc4cccc-3c24)C1O` (configuration not stated), the mutagenic call [2] was “inactive; negative”, the mutagenic call [3] was “active; positive” and the mutagenic call [4] was “inactive; negative”. For the same compound, the mutagenic call (Test System: AMES SALMONELLA TYPHIMURIUM, Strain/Indicator: TA98, Metabolic Activation: RAT, LIVER, S-9, AROCLOR 1254, Method: PREINCUBATION) was “active; positive”, the mutagenic call [5] was “inactive; negative” and the mutagenic call (Test System: AMES SALMONELLA TYPHIMURIUM, Strain/Indicator: TA100, Metabolic Activation: RAT, LIVER, S-9, AROCLOR 1254, Method: PREINCUBATION) was “active; positive”.

In the case of `Clc1c(Cl)c(Br)c2c(c1Cl)-c1nc-2nc2[n-]c(nc3nc(nc4[n-]c(n1)c1c(Cl)c(Br)c(Cl)c(Br)c41)-c1c(Cl)c(Cl)c(Br)c(Cl)c1-3)c1c(Br)c(Cl)c(Br)c(Cl)c21.[Cu+2]`, the mutagenic call (Test System: AMES SALMONELLA TYPHIMURIUM, Strain/Indicator: TA98, Metabolic Activation: HAMSTER, LIVER, S-9, AROCLOR 1254 (10%), Method: PREINCUBATION) is reported as “active; positive”, the mutagenic call [4] is reported as “inactive; negative” and the mutagenic call (Test System: AMES SALMONELLA TYPHIMURIUM, Strain/Indicator: TA98, Metabolic Activation: RAT, LIVER, S-9, AROCLOR 1254 (10%), Method: PREINCUBATION) is reported as “active; positive”. The mutagenic call (Test System: AMES SALMONELLA TYPHIMURIUM, Strain/Indicator: TA100, Metabolic Activation: HAMSTER, LIVER, S-9, AROCLOR 1254 (10%), Method: PREINCUBATION) was “inactive; negative”, the mutagenic call [5] was “inactive; negative” and the mutagenic call (Test System: AMES SALMONELLA TYPHIMURIUM, Strain/Indicator: TA100, Metabolic Activation: RAT, LIVER, S-9, AROCLOR 1254 (10%), Method: PREINCUBATION) was “inactive; negative”. For the same compound, the mutagenic call (Test System: AMES SALMONELLA TYPHIMURIUM, Strain/Indicator: TA1535, Metabolic Activation: HAMSTER, LIVER, S-9, AROCLOR 1254 (10%), Method: PREINCUBATION) was “inactive; negative”, the mutagenic call [6] was “inactive; negative” and the mutagenic call (Test System: AMES SALMONELLA TYPHIMURIUM, Strain/Indicator: TA1535, Metabolic Activation: RAT, LIVER, S-9, AROCLOR 1254 (10%), Method: PREINCUBATION) was “inactive; negative”. For the same compound, the mutagenic call (Test System: AMES SALMONELLA TYPHIMURIUM, Strain/Indicator: TA1537, Metabolic Activation: HAMSTER, LIVER, S-9, AROCLOR 1254 (10%), Method: PREINCUBATION) was “inactive; negative”, the mutagenic call [7] was “inactive; negative” and the mutagenic call (Test System: AMES SALMONELLA TYPHIMURIUM, Strain/Indicator: TA1537, Metabolic Activation: RAT, LIVER, S-9, AROCLOR 1254 (10%), Method: PREINCUBATION) was “active; positive”.

With `CCC(=O)O` the mutagenic call (Test System: AMES SALMONELLA TYPHIMURIUM, Strain/Indicator: TA97, Metabolic Activation: HAMSTER, LIVER, S-9, AROCLOR 1254 (10 OR 30%), Method: PREINCUBATION) was “inactive; negative”, the mutagenic call (Test System: AMES SALMONELLA TYPHIMURIUM, Strain/Indicator: TA97, Metabolic Activation: NONE, Method: PREINCUBATION) was “inactive; negative” and the mutagenic call (Test System: AMES SALMONELLA TYPHIMURIUM, Strain/Indicator: TA97, Metabolic Activation: RAT, LIVER, S-9, AROCLOR 1254 (10 OR 30%), Method: PREINCUBATION) was “inactive; negative”. For the same compound, the mutagenic call [2] was “inactive; negative”, the mutagenic call [3] was “inactive; negative” and the mutagenic call (Test System: AMES SALMONELLA TYPHIMURIUM, Strain/Indicator: TA98, Metabolic Activation: HAMSTER, LIVER, S-9, AROCLOR 1254 (10 OR 30%), Method: PREINCUBATION) was “inactive; negative”. The mutagenic call [4] was “inactive; negative”, the mutagenic call (Test System: AMES SALMONELLA TYPHIMURIUM, Strain/Indicator: TA98, Metabolic Activation: RAT LIVER S-9, PHENOBARBITAL AND BETA-NAPHTHOFLAVONE, Method: PREINCUBATION) was “inactive; negative” and the mutagenic call (Test System: AMES SALMONELLA TYPHIMURIUM, Strain/Indicator: TA98, Metabolic Activation: RAT, LIVER, S-9, AROCLOR 1254 (10 OR 30%), Method: PREINCUBATION) was “inactive; negative”. For the same compound, the mutagenic call (Test System: AMES SALMONELLA TYPHIMURIUM, Strain/Indicator: TA100, Metabolic Activation: HAMSTER, LIVER, S-9, AROCLOR 1254 (10 OR 30%), Method: PREINCUBATION) was “inactive; negative”, the mutagenic call [5] was “inactive; negative” and the mutagenic call (Test System: AMES SALMONELLA TYPHIMURIUM, Strain/Indicator: TA100, Metabolic Activation: RAT LIVER S-9, PHENOBARBITAL AND BETA-NAPHTHOFLAVONE, Method: PREINCUBATION) was “inactive; negative”. For the same compound, the mutagenic call (Test System: AMES SALMONELLA TYPHIMURIUM, Strain/Indicator: TA100, Metabolic Activation: RAT, LIVER, S-9, AROCLOR 1254 (10 OR 30%), Method: PREINCUBATION) was “inactive; negative”, the mutagenic call (Test System: AMES SALMONELLA TYPHIMURIUM, Strain/Indicator: TA102, Metabolic Activation: NONE, Method: PREINCUBATION) was “inactive; negative” and the mutagenic call (Test System: AMES SALMONELLA TYPHIMURIUM, Strain/Indicator: TA102, Metabolic Activation: RAT, LIVER, S-9, AROCLOR 1254, Method: PREINCUBATION) was “inactive; negative”. The mutagenic call (Test System: AMES SALMONELLA TYPHIMURIUM, Strain/Indicator: TA1535, Metabolic Activation: HAMSTER, LIVER, S-9, AROCLOR 1254 (10 OR 30%), Method: PREINCUBATION) was “inactive; negative”, the mutagenic call [6] was “inactive; negative” and the mutagenic call (Test System: AMES SALMONELLA TYPHIMURIUM, Strain/Indicator: TA1535, Metabolic Activation: RAT LIVER S-9, PHENOBARBITAL AND BETA-NAPHTHOFLAVONE, Method: PREINCUBATION) was “inactive; negative”. For the same compound, the mutagenic call (Test System: AMES SALMONELLA TYPHIMURIUM, Strain/Indicator: TA1535, Metabolic Activation: RAT, LIVER, S-9, AROCLOR 1254 (10 OR 30%), Method: PREINCUBATION) was “inactive; negative”, the mutagenic call (Test System: AMES SALMONELLA TYPHIMURIUM, Strain/Indicator: TA1537, Metabolic Activation: HAMSTER, LIVER, S-9, AROCLOR 1254 (30%), Method: PREINCUBATION) was “inactive; negative” and the mutagenic call [7] was “inactive; negative”. The mutagenic call (Test System: AMES SALMONELLA TYPHIMURIUM, Strain/Indicator: TA1537, Metabolic Activation: RAT LIVER S-9, PHENOBARBITAL AND BETA-NAPHTHOFLAVONE, Method: PREINCUBATION) was “inactive; negative”, the mutagenic call (Test System: AMES SALMONELLA TYPHIMURIUM, Strain/Indicator: TA1537, Metabolic Activation: RAT, LIVER, S-9, AROCLOR 1254 (30%), Method: PREINCUBATION) was “inactive; negative” and the mutagenic call (Test System: E.COLI, Strain/Indicator: WP2UVRA/PKM101, Metabolic Activation: NONE, Method: PREINCUBATION) was “inactive; negative”. For the same compound, the mutagenic call (Test System: E.COLI, Strain/Indicator: WP2UVRA/PKM101, Metabolic Activation: RAT LIVER S-9, PHENOBARBITAL AND BETA-NAPHTHOFLAVONE, Method: PREINCUBATION) was “inactive; negative”.
